# According to PMC13184981, “Discovery and Development of a Potent LIMK2 Isoform-Specific Degrader” (ACS Chemical Biology, 2026):
# Biological target: T1, FLAG-tagged CRBN with MOLT-4 cell lysate (Homo sapiens, UniProt P53671+Q96SW2)
# T1 construct: LIMK2: endogenous, MOLT-4 cell lysate
# Test: PROXICapture pull-down proteomics
# Assay type: binding
# Details: 5 μM PROTAC
# Experimental: Purified FLAG-CRBN was conjugated to FLAG beads (Chromotek, cat. no. ffak) in coimmunoprecipitation buffer (50 mM Tris pH-7.5, 120 mM NaCl, 1% NP40, 0.5 mM EDTA) for 1 h at 4 °C on a rotating shaker, before addition of DMSO or 5 μM THNAN69 for 30 min at 4 °C. Subsequently, ∼ 1 mg of freshly prepared protein lysate from Molt4 cells was added to the prepared beads in IP lysate buffer (50 mM Tris pH-7.5, 120 mM NaCl, 1% NP40, 0.5 mM EDTA, protease inhibitors, phosphatase inhibitors and NEM) for 1 h at 4 °C while rotating. The beads were washed three times with IP buffer and afterward used either for Western blotting or trypsin digestion followed by LC-MS/MS analysis.
# Protein-bound flag-CRBN beads were incubated with 20 μL SDC buffer (3% sodium deoxycholate in 50 mM Tris-HCl, pH 8.5) and heated for 5 min at 65 °C, and the supernatant was collected. This step was repeated one more time to get an elute of 40 μL. Further, reduction and alkylation were performed using 5 μL of 5 mM TCEP, 20 mM CAA in 50 mM Tris-HCl, pH 8.5, at 95 °C for 10 min. 500 ng of trypsin in 45 μL 50 mM Tris-HCl (pH 8.5) was added to each sample and kept for digestion at 37 °C overnight. […]
# MS raw data were analyzed using FragPipe v21.1, with MSFragger v.4.0 and Philosopher v.5.1.0. […] Label-free quantification was performed using IonQuant v.1.10.27. […]
# T1 sequence (Q96SW2 whole entry): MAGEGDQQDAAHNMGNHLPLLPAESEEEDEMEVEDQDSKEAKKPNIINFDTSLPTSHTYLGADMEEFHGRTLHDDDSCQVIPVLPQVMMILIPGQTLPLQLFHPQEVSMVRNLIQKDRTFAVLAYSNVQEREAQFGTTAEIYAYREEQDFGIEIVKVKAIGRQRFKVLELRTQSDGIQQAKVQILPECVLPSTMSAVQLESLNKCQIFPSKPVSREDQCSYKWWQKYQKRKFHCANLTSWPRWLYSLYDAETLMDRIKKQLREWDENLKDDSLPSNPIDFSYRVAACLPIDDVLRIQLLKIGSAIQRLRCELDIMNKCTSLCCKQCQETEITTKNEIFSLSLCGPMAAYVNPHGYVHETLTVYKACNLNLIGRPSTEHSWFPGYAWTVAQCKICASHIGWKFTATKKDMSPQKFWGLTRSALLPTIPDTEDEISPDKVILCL
# T1 sequence (P53671 whole entry): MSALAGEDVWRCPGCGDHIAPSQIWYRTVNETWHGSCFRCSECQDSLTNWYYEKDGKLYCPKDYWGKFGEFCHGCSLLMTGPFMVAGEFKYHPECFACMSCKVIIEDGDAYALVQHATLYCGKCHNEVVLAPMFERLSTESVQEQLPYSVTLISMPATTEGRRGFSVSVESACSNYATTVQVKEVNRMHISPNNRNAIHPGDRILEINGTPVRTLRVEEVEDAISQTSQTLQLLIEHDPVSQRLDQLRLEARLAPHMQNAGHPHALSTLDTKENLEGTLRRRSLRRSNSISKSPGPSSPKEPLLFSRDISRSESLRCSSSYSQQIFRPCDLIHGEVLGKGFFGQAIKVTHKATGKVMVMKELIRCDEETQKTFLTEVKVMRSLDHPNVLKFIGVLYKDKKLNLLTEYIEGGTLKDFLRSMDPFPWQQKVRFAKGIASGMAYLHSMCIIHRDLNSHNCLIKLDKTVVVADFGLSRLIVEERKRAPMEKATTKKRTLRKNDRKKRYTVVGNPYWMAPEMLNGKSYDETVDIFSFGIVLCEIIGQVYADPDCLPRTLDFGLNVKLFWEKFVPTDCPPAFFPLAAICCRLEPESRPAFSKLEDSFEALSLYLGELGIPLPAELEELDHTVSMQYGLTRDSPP
structure (smiles),measurement,value
Cc1c(OCc2cn(CCCCC(=O)Nc3ncc(-c4cc(C(F)F)nn4-c4c(Cl)cccc4Cl)s3)nn2)cccc1N1CCC(=O)NC1=O [22b],proteins enriched by CRBN:PROTAC pull-down,selectively recruited and enriched LIMK2 but not LIMK1
